Results reported in ChEMBL document CHEMBL6153104, “Discovery of the first potent ROR1 degrader for the treatment of non-small cell lung cancer” (Eur J Med Chem, 2025).
Values belong to the compound of their own block, whether it stands above or below them. Active and inactive are the calls of the source. The calls are words filed in the database; no cut-off is given here.

Assays:
NCI-H23 [1] = assay: Induction of apoptosis in human NCI-H23 cells assessed as early apoptotic cells at 0.3 uM incubated for 24 hrs by […]/Annexin V-PE staining based flow cytometric analysis (reference value: 5.1 %); assay type: functional
NCI-H23 [2] = assay: Induction of apoptosis in human NCI-H23 cells assessed as late apoptotic cells at 0.3 uM incubated for 24 hrs by […]/Annexin V-PE staining based flow cytometric analysis (reference value: 1.6 %); assay type: functional
NCI-H23 [3] = assay: Induction of apoptosis in human NCI-H23 cells assessed as viable cells at 1 uM incubated for 24 hrs by […]/Annexin V-PE staining based flow cytometric analysis (reference value: 92.7 %); assay type: functional; conditions: read-out: Activity
NCI-H23 [4] = assay: Antiproliferative activity against human NCI-H23 cells assessed as inhibition of cell proliferation incubated for 72 hrs by CCK8 assay; assay type: functional, cell-based; conditions: NCI-H23, 72 h
NCI-H23 [5] = assay: Induction of apoptosis in human NCI-H23 cells assessed as late apoptotic cells at 1 uM incubated for 24 hrs by […]/Annexin V-PE staining based flow cytometric analysis (reference value: 1.6 %); assay type: functional
NCI-H23 [6] = assay: Induction of apoptosis in human NCI-H23 cells assessed as PARP1 cleavage at 0.1 to 1 uM measured after 10 hrs by Western blot analysis; assay type: functional, cell-based; conditions: dose 0.1-1 µM
NCI-H23 [7] = assay: Induction of apoptosis in human NCI-H23 cells assessed as necrotic cells at 0.1 uM incubated for 24 hrs by […]/Annexin V-PE staining based flow cytometric analysis (reference value: 0.5 %); assay type: functional
NCI-H23 [8] = assay: Induction of apoptosis in human NCI-H23 cells assessed as late apoptotic cells at 0.1 uM incubated for 24 hrs by […]/Annexin V-PE staining based flow cytometric analysis (reference value: 1.6 %); assay type: functional
[9] = target: Inactive tyrosine-protein kinase transmembrane receptor ROR1 (Homo sapiens, UniProt Q01973); assay: Binding affinity to RED-NHS-labeled human ROR1 kinase domain (460 to 752 residues) extracted from Sf9 cells assessed as dissociation constant incubated for 30 mins by MST analysis; assay type: cell-free
NCI-H23 [10] = assay: Induction of apoptosis in human NCI-H23 cells assessed as PARP1 cleavage at 1 uM measured after 10 hrs by Western blot analysis; assay type: functional
NCI-H23 [11] = assay: Induction of apoptosis in human NCI-H23 cells assessed as early apoptotic cells at 0.1 uM incubated for 24 hrs by […]/Annexin V-PE staining based flow cytometric analysis (reference value: 5.1 %); assay type: functional
NCI-H23 [12] = assay: Induction of apoptosis in human NCI-H23 cells assessed as necrotic cells at 0.3 uM incubated for 24 hrs by […]/Annexin V-PE staining based flow cytometric analysis (reference value: 0.5 %); assay type: functional
NCI-H1975 = assay: Antiproliferative activity against human NCI-H1975 cells assessed as inhibition of cell proliferation incubated for 72 hrs by CCK8 assay; assay type: functional, cell-based; conditions: NCI-H1975, 72 h
NCI-H1299 = assay: Antiproliferative activity against human NCI-H1299 cells assessed as inhibition of cell proliferation incubated for 72 hrs by CCK8 assay; assay type: functional, cell-based; conditions: NCI-H1299, 72 h
NCI-H23 [13] = assay: Induction of apoptosis in human NCI-H23 cells assessed as viable cells at 0.3 uM incubated for 24 hrs by […]/Annexin V-PE staining based flow cytometric analysis (reference value: 92.7 %); assay type: functional; conditions: read-out: Activity
NCI-H460 = assay: Antiproliferative activity against human NCI-H460 cells assessed as inhibition of cell proliferation incubated for 72 hrs by CCK8 assay; assay type: functional, cell-based; conditions: NCI-H460, 72 h
NCI-H23 [14] = assay: Induction of apoptosis in human NCI-H23 cells assessed as necrotic cells at 1 uM incubated for 24 hrs by […]/Annexin V-PE staining based flow cytometric analysis (reference value: 0.5 %); assay type: functional
NCI-H23 [15] = assay: Induction of apoptosis in human NCI-H23 cells assessed as early apoptotic cells at 1 uM incubated for 24 hrs by […]/Annexin V-PE staining based flow cytometric analysis (reference value: 5.1 %); assay type: functional
NCI-H23 [16] = assay: Induction of apoptosis in human NCI-H23 cells assessed as viable cells at 0.1 uM incubated for 24 hrs by […]/Annexin V-PE staining based flow cytometric analysis (reference value: 92.7 %); assay type: functional; conditions: read-out: Activity
[17] = target: T1, von Hippel-Lindau disease tumor suppressor/Inactive tyrosine-protein kinase transmembrane receptor ROR1 (Homo sapiens, UniProt P40337+Q01973); assay: PROTAC activity at VHL/ROR1 in human NCI-H23 cells assessed as induction of ROR1 degradation preincubated with cycloheximide followed by compound addition and measured after 6 hrs by Western blot analysis; assay type: cell-based
Target sequence in this assay (P40337 whole entry): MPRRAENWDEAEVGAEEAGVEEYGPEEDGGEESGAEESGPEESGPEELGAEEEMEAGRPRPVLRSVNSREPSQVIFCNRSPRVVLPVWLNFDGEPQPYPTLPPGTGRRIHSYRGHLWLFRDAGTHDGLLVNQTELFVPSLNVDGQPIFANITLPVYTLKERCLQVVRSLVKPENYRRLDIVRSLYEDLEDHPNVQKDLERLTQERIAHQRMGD
Target sequence in this assay (Q01973 30-937 partner limits assumed): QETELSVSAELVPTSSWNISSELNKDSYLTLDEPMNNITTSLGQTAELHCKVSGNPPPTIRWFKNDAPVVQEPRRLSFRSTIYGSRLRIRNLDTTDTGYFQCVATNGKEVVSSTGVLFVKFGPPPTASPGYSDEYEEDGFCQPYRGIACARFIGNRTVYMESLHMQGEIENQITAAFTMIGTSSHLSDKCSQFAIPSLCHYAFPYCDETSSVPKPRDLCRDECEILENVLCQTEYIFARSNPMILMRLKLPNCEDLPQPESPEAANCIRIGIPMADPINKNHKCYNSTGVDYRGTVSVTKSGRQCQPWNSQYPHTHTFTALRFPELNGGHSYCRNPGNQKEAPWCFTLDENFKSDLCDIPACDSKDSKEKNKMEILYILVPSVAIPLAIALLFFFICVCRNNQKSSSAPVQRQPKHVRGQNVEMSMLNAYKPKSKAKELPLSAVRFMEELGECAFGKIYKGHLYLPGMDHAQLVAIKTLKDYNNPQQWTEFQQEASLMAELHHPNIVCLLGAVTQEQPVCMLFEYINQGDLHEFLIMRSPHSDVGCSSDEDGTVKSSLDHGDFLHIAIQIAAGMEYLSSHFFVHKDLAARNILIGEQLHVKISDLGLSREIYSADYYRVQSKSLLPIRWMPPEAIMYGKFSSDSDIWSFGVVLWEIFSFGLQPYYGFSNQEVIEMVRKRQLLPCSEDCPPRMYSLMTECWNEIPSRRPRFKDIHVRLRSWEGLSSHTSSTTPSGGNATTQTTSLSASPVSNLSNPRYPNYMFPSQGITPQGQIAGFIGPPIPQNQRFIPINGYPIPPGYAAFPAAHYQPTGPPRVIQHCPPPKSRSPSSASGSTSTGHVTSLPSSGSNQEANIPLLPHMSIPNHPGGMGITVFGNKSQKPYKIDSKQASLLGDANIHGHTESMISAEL

[18] = target: T1, von Hippel-Lindau disease tumor suppressor/Inactive tyrosine-protein kinase transmembrane receptor ROR1; assay: PROTAC activity at VHL/ROR1 in human NCI-H23 cells assessed as induction of ROR1 degradation at 1 uM incubated for 4 hrs by Western blot analysis; assay type: cell-based
Target sequence in this assay (P40337 whole entry): as the sequence (P40337 whole entry) above
Target sequence in this assay (Q01973 30-937 partner limits assumed): as the sequence (Q01973 30-937 partner limits assumed) above

[19] = target: T1, von Hippel-Lindau disease tumor suppressor/Inactive tyrosine-protein kinase transmembrane receptor ROR1; assay: PROTAC activity at VHL/ROR1 in human NCI-H1975 cells assessed as induction of ROR1 degradation incubated for 12 hrs by Western blot analysis; assay type: cell-based
Target sequence in this assay (P40337 whole entry): as the sequence (P40337 whole entry) above
Target sequence in this assay (Q01973 whole entry): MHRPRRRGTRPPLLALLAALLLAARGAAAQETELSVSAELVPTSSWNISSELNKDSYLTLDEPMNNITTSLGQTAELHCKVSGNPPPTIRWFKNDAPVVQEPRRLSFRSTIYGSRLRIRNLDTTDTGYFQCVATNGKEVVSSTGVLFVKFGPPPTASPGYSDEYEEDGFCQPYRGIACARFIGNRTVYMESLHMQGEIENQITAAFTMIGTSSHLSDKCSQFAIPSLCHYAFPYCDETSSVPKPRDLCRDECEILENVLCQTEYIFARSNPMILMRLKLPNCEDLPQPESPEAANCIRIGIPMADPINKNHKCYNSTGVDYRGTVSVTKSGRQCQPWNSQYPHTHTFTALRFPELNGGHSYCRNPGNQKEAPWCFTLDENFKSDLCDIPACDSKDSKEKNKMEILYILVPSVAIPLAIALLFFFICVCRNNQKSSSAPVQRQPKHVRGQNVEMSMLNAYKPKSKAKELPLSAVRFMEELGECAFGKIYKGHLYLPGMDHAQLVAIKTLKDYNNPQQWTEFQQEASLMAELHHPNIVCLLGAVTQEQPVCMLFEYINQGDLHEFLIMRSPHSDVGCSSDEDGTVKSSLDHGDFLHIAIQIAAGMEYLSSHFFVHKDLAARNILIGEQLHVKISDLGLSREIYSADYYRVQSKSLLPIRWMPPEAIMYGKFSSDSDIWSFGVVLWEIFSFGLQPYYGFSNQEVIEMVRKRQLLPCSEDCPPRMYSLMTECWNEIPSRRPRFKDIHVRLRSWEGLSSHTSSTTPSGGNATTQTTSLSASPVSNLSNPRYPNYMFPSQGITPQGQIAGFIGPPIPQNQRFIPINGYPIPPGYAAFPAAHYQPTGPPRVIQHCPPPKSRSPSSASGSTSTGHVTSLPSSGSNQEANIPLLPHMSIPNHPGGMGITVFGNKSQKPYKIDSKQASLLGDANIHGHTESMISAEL

[20] = target: T2, von Hippel-Lindau disease tumor suppressor/Cyclin-dependent kinase-like 2 (Homo sapiens) (UniProt Q92772+P40337); assay: PROTAC activity at VHL/CDKL2 in human NCI-H23 cells assessed as induction of CDKL2 degradation by Western blot analysis; assay type: cell-based
[21] = target: T1, von Hippel-Lindau disease tumor suppressor/Inactive tyrosine-protein kinase transmembrane receptor ROR1; assay: PROTAC activity at VHL/ROR1 in human NCI-H23 cells assessed as induction of ROR1 degradation by measuring maximal efficacy at 10 to 1000 nM incubated for 12 hrs by Western blot analysis relative to control; assay type: cell-based; conditions: dose 10-1000 nM
Target sequence in this assay (P40337 whole entry): as the sequence (P40337 whole entry) above
Target sequence in this assay (Q01973 30-937 partner limits assumed): as the sequence (Q01973 30-937 partner limits assumed) above

[22] = target: T3, von Hippel-Lindau disease tumor suppressor/Tyrosine-protein kinase transmembrane receptor ROR2 (Homo sapiens) (UniProt Q01974+P40337); assay: PROTAC activity at VHL/ROR2 in human NCI-H1975 cells assessed as induction of ROR2 degradation at 1 uM by Western blot analysis; assay type: cell-based
T3 sequence (P40337 whole entry, looked up): as the sequence (P40337 whole entry) above
T3 sequence (Q01974 whole entry, looked up): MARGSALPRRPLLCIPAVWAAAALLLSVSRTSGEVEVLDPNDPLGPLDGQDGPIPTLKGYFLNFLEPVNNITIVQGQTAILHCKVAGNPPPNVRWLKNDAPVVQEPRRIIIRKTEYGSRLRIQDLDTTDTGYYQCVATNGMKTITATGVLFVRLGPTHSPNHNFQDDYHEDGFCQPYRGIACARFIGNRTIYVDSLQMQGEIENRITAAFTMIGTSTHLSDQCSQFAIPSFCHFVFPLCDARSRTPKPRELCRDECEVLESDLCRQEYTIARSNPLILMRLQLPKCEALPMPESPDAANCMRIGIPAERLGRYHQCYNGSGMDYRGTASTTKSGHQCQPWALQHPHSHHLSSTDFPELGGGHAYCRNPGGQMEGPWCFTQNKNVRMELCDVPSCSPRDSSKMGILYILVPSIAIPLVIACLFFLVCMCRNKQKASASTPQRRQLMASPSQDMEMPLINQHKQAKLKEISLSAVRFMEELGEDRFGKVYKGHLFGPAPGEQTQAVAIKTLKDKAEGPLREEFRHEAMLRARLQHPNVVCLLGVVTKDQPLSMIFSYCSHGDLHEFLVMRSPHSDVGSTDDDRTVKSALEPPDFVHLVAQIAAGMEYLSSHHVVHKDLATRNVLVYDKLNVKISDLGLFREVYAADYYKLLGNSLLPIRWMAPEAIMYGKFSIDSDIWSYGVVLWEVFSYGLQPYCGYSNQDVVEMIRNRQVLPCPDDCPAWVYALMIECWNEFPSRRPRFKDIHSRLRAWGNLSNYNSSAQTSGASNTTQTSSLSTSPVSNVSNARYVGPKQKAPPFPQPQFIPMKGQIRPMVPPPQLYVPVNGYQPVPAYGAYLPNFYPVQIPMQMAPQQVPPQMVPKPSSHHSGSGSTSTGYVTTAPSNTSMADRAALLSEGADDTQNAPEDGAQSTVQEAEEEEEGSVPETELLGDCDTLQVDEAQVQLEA

[23] = target: T4, von Hippel-Lindau disease tumor suppressor/Cyclin-dependent kinase 4 (Homo sapiens) (UniProt P11802+P40337); assay: PROTAC activity at VHL/CDK4 in human NCI-H23 cells assessed as induction of CDK4 degradation by Western blot analysis; assay type: cell-based
T4 sequence (P11802 2-303 limits assumed): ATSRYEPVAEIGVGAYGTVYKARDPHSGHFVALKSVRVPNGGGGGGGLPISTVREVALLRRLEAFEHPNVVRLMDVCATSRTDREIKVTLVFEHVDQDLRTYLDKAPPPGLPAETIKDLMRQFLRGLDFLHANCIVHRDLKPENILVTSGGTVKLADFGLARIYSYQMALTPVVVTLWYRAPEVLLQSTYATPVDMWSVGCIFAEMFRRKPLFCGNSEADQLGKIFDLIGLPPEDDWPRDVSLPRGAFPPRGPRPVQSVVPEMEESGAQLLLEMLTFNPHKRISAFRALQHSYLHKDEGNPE
T4 sequence (P40337 whole entry partner): as the sequence (P40337 whole entry) above

[24] = target: T2, von Hippel-Lindau disease tumor suppressor/Cyclin-dependent kinase-like 2 (Homo sapiens); assay: PROTAC activity at VHL/CDKL2 in human NCI-H1975 cells assessed as induction of CDKL2 degradation by Western blot analysis; assay type: cell-based
[25] = target: T1, von Hippel-Lindau disease tumor suppressor/Inactive tyrosine-protein kinase transmembrane receptor ROR1; assay: PROTAC activity at VHL/ROR1 in human NCI-H23 cells assessed as induction of ROR1 degradation at 1 uM incubated for 24 hrs by Western blot analysis relative to control; assay type: cell-based
Target sequence in this assay (P40337 whole entry): as above
Target sequence in this assay (Q01973 30-937 partner limits assumed): as the sequence (Q01973 30-937 partner limits assumed) above

[26] = target: T1, von Hippel-Lindau disease tumor suppressor/Inactive tyrosine-protein kinase transmembrane receptor ROR1; assay: PROTAC activity at VHL/ROR1 in human NCI-H1299 cells assessed as induction of ROR1 degradation incubated for 12 hrs by Western blot analysis; assay type: cell-based
Target sequence in this assay (P40337 whole entry): as the sequence (P40337 whole entry) above
Target sequence in this assay (Q01973 whole entry): as the sequence (Q01973 whole entry) above

[27] = target: T5, von Hippel-Lindau disease tumor suppressor/Cyclin-dependent kinase 7 (Homo sapiens) (UniProt P50613+P40337); assay: PROTAC activity at VHL/CDK7 in human NCI-H23 cells assessed as induction of CDK7 degradation by Western blot analysis; assay type: cell-based
[28] = target: T4, von Hippel-Lindau disease tumor suppressor/Cyclin-dependent kinase 4 (Homo sapiens); assay: PROTAC activity at VHL/CDK4 in human NCI-H1975 cells assessed as induction of CDK4 degradation by Western blot analysis; assay type: cell-based
[29] = target: T1, von Hippel-Lindau disease tumor suppressor/Inactive tyrosine-protein kinase transmembrane receptor ROR1; assay: PROTAC activity at VHL/ROR1 in human NCI-H23 cells assessed as induction of ROR1 degradation at 1 uM by Western blot analysis; assay type: cell-based; conditions: time 2-24 hrs
Target sequence in this assay (P40337 whole entry): as the sequence (P40337 whole entry) above
Target sequence in this assay (Q01973 30-937 partner limits assumed): as the sequence (Q01973 30-937 partner limits assumed) above

[30] = target: T1, von Hippel-Lindau disease tumor suppressor/Inactive tyrosine-protein kinase transmembrane receptor ROR1; assay: PROTAC activity at VHL/ROR1 in human NCI-H23 cells assessed as induction of ROR1 degradation at 0.7 uM preincubated with PS-341 for 2 hrs followed by compound addition and measured after 24 hrs by Western blot analysis; assay type: cell-based
Target sequence in this assay (P40337 whole entry): as the sequence (P40337 whole entry) above
Target sequence in this assay (Q01973 30-937 partner limits assumed): as the sequence (Q01973 30-937 partner limits assumed) above

[31] = target: T1, von Hippel-Lindau disease tumor suppressor/Inactive tyrosine-protein kinase transmembrane receptor ROR1; assay: PROTAC activity at VHL/ROR1 in human NCI-H460 cells assessed as induction of ROR1 degradation incubated for 12 hrs by Western blot analysis; assay type: cell-based
Target sequence in this assay (P40337 whole entry): as the sequence (P40337 whole entry) above
Target sequence in this assay (Q01973 whole entry): as the sequence (Q01973 whole entry) above

[32] = target: T1, von Hippel-Lindau disease tumor suppressor/Inactive tyrosine-protein kinase transmembrane receptor ROR1; assay: PROTAC activity at VHL/ROR1 in human NCI-H23 cells assessed as induction of ROR1 degradation at 0.5 uM preincubated with bafilomycin A1 for 2 hrs followed by compound addition and measured after 24 hrs by Western blot analysis; assay type: cell-based
[33] = target: T1, von Hippel-Lindau disease tumor suppressor/Inactive tyrosine-protein kinase transmembrane receptor ROR1; assay: PROTAC activity at VHL/ROR1 in human NCI-H23 cells assessed as induction of ROR1 degradation incubated for 12 hrs by Western blot analysis; assay type: cell-based
NCI-H23 [34] = assay: Induction of apoptosis in human NCI-H23 cells assessed as PARP1 cleavage at 0.1 uM measured after 10 hrs by Western blot analysis; assay type: functional, cell-based
[35] = target: T1, von Hippel-Lindau disease tumor suppressor/Inactive tyrosine-protein kinase transmembrane receptor ROR1; assay: PROTAC activity at VHL/ROR1 in human NCI-H23 cells assessed as induction of ROR1 degradation at 0.7 uM preincubated with TAK-243 for 2 hrs followed by compound addition and measured after 24 hrs by Western blot analysis; assay type: cell-based
[36] = target: T1, von Hippel-Lindau disease tumor suppressor/Inactive tyrosine-protein kinase transmembrane receptor ROR1; assay: PROTAC activity at VHL/ROR1 in human NCI-H23 cells assessed as induction of ROR1 degradation at 0.1 uM incubated for 24 hrs by Western blot analysis relative to control; assay type: cell-based
[37] = target: T5, von Hippel-Lindau disease tumor suppressor/Cyclin-dependent kinase 7 (Homo sapiens); assay: PROTAC activity at VHL/CDK7 in human NCI-H1975 cells assessed as induction of CDK7 degradation by Western blot analysis; assay type: cell-based
[38] = target: T3, von Hippel-Lindau disease tumor suppressor/Tyrosine-protein kinase transmembrane receptor ROR2 (Homo sapiens); assay: PROTAC activity at VHL/ROR2 in human NCI-H23 cells assessed as induction of ROR2 degradation by Western blot analysis; assay type: cell-based
[39] = target: T1, von Hippel-Lindau disease tumor suppressor/Inactive tyrosine-protein kinase transmembrane receptor ROR1; assay: PROTAC activity at VHL/ROR1 in human NCI-H23 cells assessed as induction of ROR1 degradation at 1 uM incubated for 24 hrs by Western blot analysis; assay type: cell-based

IC50 (NCI-H23 [4]): 483 nM | Kd [9]: 42000 nM | IC50 (NCI-H1975): 371 nM | IC50 (NCI-H1299): 5820 nM | IC50 (NCI-H460): 5210 nM
SMILES: CCOCCN1CCN(c2ccc(-c3nc4c(NC5CCN(CC)CC5)c(Br)cnc4[nH]3)cc2)CC1
Activity (NCI-H23 [1]): 4.3% | Activity (NCI-H23 [2]): 1% | viability at 1 µM (NCI-H23 [3]): 63.7% | Activity (NCI-H23 [5]): 6.1% | Activity (NCI-H23 [6]): Active; Less Potent Compared To Compound 11 | Activity (NCI-H23 [7]): 0.2% | Activity (NCI-H23 [8]): 0.5% | Activity (NCI-H23 [10]): 100% | Activity (NCI-H23 [11]): 2.5% | Activity (NCI-H23 [12]): 0.2% | viability at 0.3 µM (NCI-H23 [13]): 94.5% | Activity (NCI-H23 [14]): 0.7% | Activity (NCI-H23 [15]): 29.5% | viability at 0.1 µM (NCI-H23 [16]): 96.9%

Activity [18]: Active | DC50 [19]: 42.1 nM | Activity [20]: inactive | Emax [21]: 93.7% | Activity [22]: Active; Slight Degradation Observed | Activity [23]: inactive | Activity [24]: inactive | IC50 (NCI-H23 [4]): 36 nM | Activity [25]: 99.7% | DC50 [26]: 83.3 nM | Activity [27]: inactive | Activity [28]: inactive | Activity [29]: Time-dependent-effect | Activity [30]: inactive | DC50 [31]: 69 nM | Activity [32]: Active | Activity [33]: Dose-dependent-effect | DC50 [33]: 40.9 nM | Activity [35]: inactive | IC50 (NCI-H1975): 63 nM | IC50 (NCI-H1299): 164 nM | Activity [36]: 93% | Activity [37]: inactive | IC50 (NCI-H460): 85 nM | Activity [38]: inactive | Activity [39]: Active; Maximal Degradation Observed
SMILES: CCN1CCC(Nc2c(Br)cnc3[nH]c(-c4ccc(N5CCN(C(=O)CCCCCCCCC(=O)N[C@H](C(=O)N6C[C@H](O)C[C@H]6C(=O)NCc6ccc(-c7scnc7C)cc6)C(C)(C)C)CC5)cc4)nc23)CC1
Activity [17]: Active; Compound Reduction Ror1 Protein Via Protein Degradation Pathway | Activity (NCI-H23 [1]): 46.5% | Activity (NCI-H23 [2]): 20.1% | viability at 1 µM (NCI-H23 [3]): 29.9% | Activity (NCI-H23 [5]): 22.1% | Activity (NCI-H23 [7]): 0.3% | Activity (NCI-H23 [8]): 6.5% | Activity (NCI-H23 [11]): 29.9% | Activity (NCI-H23 [12]): 0.8% | Activity (NCI-H23 [34]): Active | viability at 0.3 µM (NCI-H23 [13]): 32.5% | Activity (NCI-H23 [14]): 1.4% | Activity (NCI-H23 [15]): 46.9% | viability at 0.1 µM (NCI-H23 [16]): 63.2%
